In paper PMC1242219, “Anthracyclines, proteasome activity and multi-drug-resistance” (BMC Cancer, 2005):
Read-outs that look alike come from different tables or passages of the source. Each block holds one molecule with its values, some of them ahead of it. Peptide text beside a SMILES is read from it. * marks the point of attachment. Cbz = O=C(OCc1ccccc1)*

Key:
26S proteasome = molecular target: T1, 26S proteasome (Homo sapiens, UniProt P28074); test: Chymotrypsin-like 26S proteasome function in crude cell extracts (SucLLVY-AMC fluorogenic peptide assay); assay type: biochemical; details: for Effect on 26S proteasome function: data not shown; for Chymotryptic 26S Proteasome Activity in Lysates from ECV 304 Cells: activity relative to 0 μM = 1, mean ± SEM
T1 construct: endogenous in cells; host or cells: ECV304 cells, crude extract
T1 sequence (P28074 60-263): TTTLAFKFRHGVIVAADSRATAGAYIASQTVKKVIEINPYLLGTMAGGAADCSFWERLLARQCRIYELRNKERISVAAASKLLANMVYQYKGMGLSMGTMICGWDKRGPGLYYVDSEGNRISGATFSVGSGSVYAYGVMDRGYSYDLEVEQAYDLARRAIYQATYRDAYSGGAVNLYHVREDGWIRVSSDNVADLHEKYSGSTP
Procedure: (§1) 20S and 26S proteasome function was measured as described previously (20). Briefly, cells were washed with PBS, then with buffer I (50 mM Tris, pH 7.4, 2 mM DTT, 5 mM MgCl2, 2 mM ATP), and pelleted by centrifugation. Glass beads and homogenization buffer (50 mM Tris, pH 7.4, 1 mM DTT, 5 mM MgCl2, 2 mM ATP, 250 mM sucrose) were added and vortexed for 1 minute. Beads and cell debris were removed by centrifugation at 1,000 × g for 5 minutes and 10,000 × g for 20 minutes. Protein concentration was determined by the BCA protocol (Pierce). One hundred μg protein of each sample was diluted with buffer I to a final volume of 1000 μl and the fluorogenic proteasome substrate SucLLVY-7-amido-4-methylcoumarin (chymotrypsin-like, Sigma) was added in a final concentration of 80 μM in 1% DMSO. To access 20S function, buffer I was replaced by an ATP-free buffer containing SDS (20 mM HEPES, pH 7.8; 0.5 mM EDTA, 0.03% SDS). Cleavage activity was monitored continuously by detection of free 7-amido-4-methylcoumarin using a fluorescence plate reader (Gemini, Molecular Devices) at 380/460 nm and 37°C. As controls for drug studies, 7-amido-4-methylcoumarin (AMC, 2 μM) was incubated with drugs in buffer I without cell extracts and measurements of proteasome function were corrected when necessary.

20S proteasome = molecular target: T2, 20S proteasome (Homo sapiens, UniProt P28074); test: Chymotrypsin-like 20S proteasome function in crude cell extracts (ATP-free buffer with SDS, SucLLVY-AMC); assay type: biochemical
T2 construct: Chymotryptic 20S Proteasome Activity in Lysates from ECV 304 Cells; endogenous in cells; host or cells: ECV304 cells, crude extract
T2 sequence (P28074 60-263): T1 sequence (P28074 60-263)
Procedure: as §1

[1] = test system: proteasome function (Ub-GFP accumulation) in ECV304/10 cells; test: Proteasome function in living ECV304/10 cells stably transfected with Ub-R-GFP fusion protein (fluorescence microscopy); assay type: cell-based, human; details: 100 μM
Procedure: ECV304 cells were plated at a density of 250.000 cells/well into six-well plates twelve hours before transfection. Cells were transfected with 5 μg of a plasmid (pEGFP-N1, Clontech) coding for an ubiquitin (Ub)-R-GFP fusion protein under control of a CMV promoter (a kind gift from Dr. M. Masucci, Karolinska Institute, Sweden) using the Superfect transfection kit (Qiagen) and following the manufacturer's instructions. Transfected cells were maintained in DMEM (10 % FSC, 1 % penicillin/streptomycin) supplemented with 500 μg/ml G418 (Sigma) and clones were obtained.

P-glycoprotein = molecular target: T3, P-glycoprotein (Homo sapiens, UniProt P08183); test: Drug accumulation assay: daunorubicin fluorescence in P-gp overexpressing KB 8-5 cells; assay type: cell-based; details: different doses of MG-132 (0, 6.25, 12.5, 25, 50 μM), daunorubicin 10 μM, 45 minutes
T3 construct: accumulation of daunorubicin in KB 8-5 cells that overexpress P-glycoprotein; endogenous in cells; host or cells: KB 8.5 (KB 8-5) cells, maintained under colchicine selection
T3 sequence (P08183 whole entry): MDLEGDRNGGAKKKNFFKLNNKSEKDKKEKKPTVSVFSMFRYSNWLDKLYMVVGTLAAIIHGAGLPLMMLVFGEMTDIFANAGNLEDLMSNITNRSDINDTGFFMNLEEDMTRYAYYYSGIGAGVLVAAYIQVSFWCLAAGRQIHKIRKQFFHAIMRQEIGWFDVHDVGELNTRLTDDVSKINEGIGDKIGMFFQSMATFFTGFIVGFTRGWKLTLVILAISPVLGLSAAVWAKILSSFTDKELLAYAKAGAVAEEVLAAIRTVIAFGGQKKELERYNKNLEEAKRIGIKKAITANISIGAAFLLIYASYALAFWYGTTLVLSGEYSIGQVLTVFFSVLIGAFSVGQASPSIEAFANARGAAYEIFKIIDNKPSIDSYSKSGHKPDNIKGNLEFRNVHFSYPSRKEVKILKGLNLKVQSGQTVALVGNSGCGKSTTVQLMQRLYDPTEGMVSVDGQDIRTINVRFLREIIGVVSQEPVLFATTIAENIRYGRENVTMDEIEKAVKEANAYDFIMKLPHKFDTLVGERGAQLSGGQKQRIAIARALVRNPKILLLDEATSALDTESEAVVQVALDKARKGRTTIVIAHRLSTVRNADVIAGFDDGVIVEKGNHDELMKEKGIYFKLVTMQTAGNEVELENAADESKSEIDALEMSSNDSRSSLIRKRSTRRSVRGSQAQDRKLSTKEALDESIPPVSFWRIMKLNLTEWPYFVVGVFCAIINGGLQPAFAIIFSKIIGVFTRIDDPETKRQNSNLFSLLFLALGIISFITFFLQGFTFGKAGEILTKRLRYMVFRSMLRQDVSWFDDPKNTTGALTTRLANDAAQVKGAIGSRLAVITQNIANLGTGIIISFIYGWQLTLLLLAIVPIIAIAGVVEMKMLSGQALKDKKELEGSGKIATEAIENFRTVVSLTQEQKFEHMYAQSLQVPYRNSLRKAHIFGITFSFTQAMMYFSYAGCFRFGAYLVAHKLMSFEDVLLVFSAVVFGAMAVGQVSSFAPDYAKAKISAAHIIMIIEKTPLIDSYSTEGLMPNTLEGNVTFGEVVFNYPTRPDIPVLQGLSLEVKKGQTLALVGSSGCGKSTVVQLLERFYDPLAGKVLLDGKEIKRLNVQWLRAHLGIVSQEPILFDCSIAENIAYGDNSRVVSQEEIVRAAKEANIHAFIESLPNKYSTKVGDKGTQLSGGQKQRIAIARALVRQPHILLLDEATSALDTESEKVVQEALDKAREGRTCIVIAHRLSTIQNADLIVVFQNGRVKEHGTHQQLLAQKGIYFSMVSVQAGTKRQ

ECV304 cells = test: Drug accumulation assay: doxorubicin in cytoplasm and nuclear fraction of ECV304 cells; assay type: cell-based, human; details: MG-132 25 μM
Procedure: Stock solutions of all cytotoxic drugs were obtained from the hospital pharmacy of the University Clinic Freiburg. […] Control cells were subjected to DMSO treatment alone (0.5 %).
Growth medium on cells was replaced by PBS for 40 minutes at 37°C. This was replaced by fresh PBS containing daunorubicin or doxorubicin and MG-132 or anthracyclines alone. […] After drug treatment, the cells were washed twice with PBS, re-suspended in either 4 ml lysis buffer (0.3 M sucrose, 0.05 mM EGTA pH 8.0, 60 mM KCl, 15 mM NaCl, 15 mM HEPES pH 7.5, 150 μM spermine, 50 μM spermidine) containing 20 μl triton X-100 for nuclear isolation or 400 μl of 50% ethanol in 1 M HCl (v/v) for whole cell lysis. For the latter, cells were vortexed and diluted with water to a final volume of 1.4 ml. The cells in lysis buffer were mixed and left on ice for 15 minutes before centrifuging. The nuclei (pellet) were then vortexed with 400 μl HCl/isopropanol.

KB 8.5 cells = test: Apoptosis / morphological toxicity of KB 8.5 cells treated with MG-132; assay type: cell-based, human
Description: The human epitheloid carcinoma cell line KB 8-5 is a well-characterized tumor cell line that over-expresses mdr-1 with associated MDR.

[2] = crude extracts of ECV304 cells, 0 – 100 μM drug, read-out: IC50, inhibition of 26S proteasome function
[3] = 6.25 μM, activity relative to 0 μM = 1, mean ± SEM
[4] = 25 μM, activity relative to 0 μM = 1, mean ± SEM
[5] = 50 μM, activity relative to 0 μM = 1, mean ± SEM
[6] = 100 μM, activity relative to 0 μM = 1, mean ± SEM

SMILES: COc1cccc2c1C(=O)c1c(O)c3c(c(O)c1C2=O)C[C@@](O)(C(=O)CO)C[C@@H]3O[C@H]1C[C@H](N)[C@H](O)[C@H](C)O1 [doxorubicin]
IC50 (26S proteasome): 65.5 µM | IC50 (20S proteasome): 5.8 µM | GFP accumulation indicating inhibition of proteasome function in living cells ([1]; ECV304/10 cells, 12 hours): GFP accumulated throughout the cytoplasm

SMILES: CC(C)C[C@@H](C=O)NC(=O)[C@H](CC(C)C)NC(=O)[C@H](CC(C)C)NC(=O)OCc1ccccc1 [MG-132] (Cbz-Leu-Leu-Leu-aldehyde)
Accumulation of daunorubicin in KB 8-5 cells (P-glycoprotein): increased, dose-dependent accumulation of daunorubicin | Uptake of doxorubicin in the cytoplasm and in the nuclear fraction (ECV304 cells): increased uptake of doxorubicin | Morphological signs of toxicity (KB 8.5 cells; KB 8-5 cells, 50 μM, 45 minutes of incubation): no morphological signs of toxicity | Induction of apoptosis (KB 8.5 cells; KB 8.5 cells, 3.125 to 50 μM, within 24 hours, preliminary experiments): induced apoptosis

SMILES: COc1cccc2c1C(=O)c1c(O)c3c(c(O)c1C2=O)C[C@@](O)(C(=O)CO)C[C@@H]3O[C@H]1C[C@H](N)[C@@H](O)[C@H](C)O1 [epirubicin]
IC50 (26S proteasome): 29.2 µM | IC50 (20S proteasome): 12.5 µM

SMILES: COc1cccc2c1C(=O)c1c(O)c3c(c(O)c1C2=O)C[C@@](O)(C(C)=O)C[C@@H]3O[C@H]1C[C@H](N)[C@H](O)[C@H](C)O1 [daunorubicin]
Chymotryptic 26S Proteasome Activity in Lysates from ECV 304 Cells (26S proteasome; 6.25 μM): 0.85 ± 0.05 | Chymotryptic 26S Proteasome Activity in Lysates from ECV 304 Cells (26S proteasome; 12.5 μM): 0.53 ± 0.11 | Chymotryptic 26S Proteasome Activity in Lysates from ECV 304 Cells (26S proteasome; 25 μM): 0.22 ± 0.09 | Chymotryptic 26S Proteasome Activity in Lysates from ECV 304 Cells (26S proteasome; 50 μM): 0.12 ± 0.06 | Chymotryptic 26S Proteasome Activity in Lysates from ECV 304 Cells (26S proteasome; 100 μM): 0.11 ± 0.06 | IC50 (26S proteasome; [2]): 13.7 µM | Chymotryptic 20S Proteasome Activity in Lysates from ECV 304 Cells (20S proteasome): 0.64 ± 0.07 n.s. | Chymotryptic 20S Proteasome Activity in Lysates from ECV 304 Cells (20S proteasome; [3]): 0.62 ± 0.19 n.s. | Chymotryptic 20S Proteasome Activity in Lysates from ECV 304 Cells (20S proteasome; [4]): 0.81 ± 0.05 n.s. | Chymotryptic 20S Proteasome Activity in Lysates from ECV 304 Cells (20S proteasome; [5]): 0.95 ± 0.04 n.s. | Chymotryptic 20S Proteasome Activity in Lysates from ECV 304 Cells (20S proteasome; [6]): 1.05 ± 0.1 n.s. | Inhibition of 20S proteasome function (20S proteasome; crude extracts of ECV304 cells, up to 100 μM): not | GFP accumulation indicating proteasome inhibition in living cells ([1]; ECV304 Ub-GFP cells, 16 h (Figure 2 legend)): accumulation of GFP throughout the cytoplasm

The next lines start with the values.

Effect on 26S proteasome function (26S proteasome; crude extracts of ECV304 cells): no measurable effect
SMILES: CO[C@@]12[C@H](COC(N)=O)C3=C(C(=O)C(C)=C(N)C3=O)N1C[C@@H]1N[C@@H]12 [mitomycin C]

Effect on 26S proteasome function (26S proteasome; crude extracts of ECV304 cells): no measurable effect
SMILES: Nc1ccn([C@@H]2O[C@H](CO)[C@@H](O)C2(F)F)c(=O)n1 [gemcitabine]

Chymotryptic 26S Proteasome Activity in Lysates from ECV 304 Cells (26S proteasome; 6.25 μM): 0.97 ± 0.03 n.s. | Chymotryptic 26S Proteasome Activity in Lysates from ECV 304 Cells (26S proteasome; 12.5 μM): 0.96 ± 0.02 n.s. | Chymotryptic 26S Proteasome Activity in Lysates from ECV 304 Cells (26S proteasome; 25 μM): 0.79 ± 0.12 n.s. | Chymotryptic 26S Proteasome Activity in Lysates from ECV 304 Cells (26S proteasome; 50 μM): 0.28 ± 0.09 | Chymotryptic 26S Proteasome Activity in Lysates from ECV 304 Cells (26S proteasome; 100 μM): 0.1 ± 0.06 | IC50 (26S proteasome; [2]): 38.6 µM | Chymotryptic 20S Proteasome Activity in Lysates from ECV 304 Cells (20S proteasome; [3]): 0.67 ± 0.07 | Chymotryptic 20S Proteasome Activity in Lysates from ECV 304 Cells (20S proteasome; 12.5 μM, activity relative to 0 μM = 1, mean ± SEM): 0.67 ± 0.08 | Chymotryptic 20S Proteasome Activity in Lysates from ECV 304 Cells (20S proteasome; [4]): 0.69 ± 0.05 | Chymotryptic 20S Proteasome Activity in Lysates from ECV 304 Cells (20S proteasome; [5]): 0.67 ± 0.05 | Chymotryptic 20S Proteasome Activity in Lysates from ECV 304 Cells (20S proteasome; [6]): 0.49 ± 0.11 | IC50 (20S proteasome; crude extracts of ECV304 cells): 92 µM
SMILES: CC(=O)[C@]1(O)Cc2c(O)c3c(c(O)c2[C@@H](O[C@H]2C[C@H](N)[C@H](O)[C@H](C)O2)C1)C(=O)c1ccccc1C3=O [idarubicin]

Effect on 26S proteasome function (26S proteasome; crude extracts of ECV304 cells): no measurable effect
SMILES: CC[C@@]1(O)C(=O)OCc2c1cc1n(c2=O)Cc2cc3c(CN(C)C)c(O)ccc3nc2-1 [Topotecan, topotecan]
